The source of these data is ChEMBL document CHEMBL4622870, “Design, synthesis and evaluation of hydrazine and acyl hydrazone derivatives of 5-pyrrolidin-2-one as antifungal agents” (Bioorg Med Chem Lett, 2020).

Structures are written as SMILES.

The subject of series [1] is Alternaria alternata. The series is described as follows: Antifungal activity against Alternaria alternata assessed as fungal growth inhibition at 100 ug/ml by micro-dilution method relative to control. It counts as functional. The following applies: read-out: GI. A general note: In broth dilution the organism is exposed to a series of concentrations in liquid medium.

Series [2] deals with Aspergillus oryzae. In words: Antifungal activity against Aspergillus oryzae assessed as fungal growth inhibition at 100 ug/ml by micro-dilution method relative to control. It counts as functional. To be noted: read-out: GI.
Series [3] concerns Cladosporium cladosporioides. In words: Antifungal activity against Cladosporium cladosporioides assessed as fungal growth inhibition at 100 ug/ml by micro-dilution method relative to control. To be noted: read-out: GI. It counts as functional.
In series [4] the test system is Geotrichum candidum. In words: Antifungal activity against Geotrichum candidum assessed as fungal growth inhibition at 100 ug/ml by micro-dilution method relative to control. It counts as functional. To be noted: read-out: GI.
For series [5], the system named is Candida tropicalis. In words: Antifungal activity against Candida tropicalis assessed as fungal growth inhibition at 100 ug/ml by micro-dilution method relative to control. To be noted: read-out: GI. It counts as functional.
The subject of series [6] is Paecilomyces variotii. In words: Antifungal activity against Paecilomyces variotii assessed as fungal growth inhibition at 100 ug/ml by micro-dilution method relative to control. It counts as functional. The following applies: read-out: GI.
The test system of series [7] is Penicillium ochrochloron. The series is described as follows: Antifungal activity against Penicillium ochrochloron assessed as fungal growth inhibition at 100 ug/ml by micro-dilution method relative to control. It counts as functional. To be noted: read-out: GI.
Series [8] relates to Botrytis cinerea. In words: Antifungal activity against Botrytis cinerea assessed as fungal growth inhibition at 100 ug/ml by micro-dilution method relative to control. The following applies: read-out: GI. It counts as functional.
In series [9] the test system is Geotrichum candidum. In words: Antifungal activity against Geotrichum candidum assessed as fungal growth inhibition by micro-dilution method. It counts as functional.
The test system of series [10] is Sclerotinia sclerotiorum. In words: Antifungal activity against Sclerotinia sclerotiorum assessed as fungal growth inhibition at 100 ug/ml by micro-dilution method relative to control. It counts as functional. To be noted: read-out: GI.
For series [11], the system named is Kluyveromyces marxianus. In words: Antifungal activity against Candida pseudotropicalis assessed as fungal growth inhibition at 100 ug/ml by micro-dilution method relative to control. It counts as functional. The following applies: read-out: GI.
In series [12] the test system is Fusarium solani. The series is described as follows: Antifungal activity against Fusarium solani assessed as fungal growth inhibition at 100 ug/ml by micro-dilution method relative to control. It counts as functional. To be noted: read-out: GI.
The test system of series [13] is HEK293. In words: Cytotoxicity against human HEK293 cells assessed as effect on cell viability measured after 72 hrs by MTS assay. It counts as cell-based. The following applies: hek293, 72 h.
Series [14] concerns Pichia kudriavzevii. The series is described as follows: Antifungal activity against Candida krusei assessed as fungal growth inhibition at 100 ug/ml by micro-dilution method relative to control. The following applies: read-out: GI. It counts as functional.
In series [15] the test system is Fusarium solani. The series is described as follows: Antifungal activity against Fusarium solani assessed as fungal growth inhibition by micro-dilution method. It counts as functional.
The subject of series [16] is Paecilomyces variotii. In words: Antifungal activity against Paecilomyces variotii assessed as fungal growth inhibition by micro-dilution method. It counts as functional.

The term MIC50 denotes an inhibitory concentration at the 50% level, which refers to growth in some studies and to a panel of isolates in others. Take `O=C1CC[C@@H](C(=O)N/N=C/c2ccc(C(F)(F)F)cc2)N1`: the inhibition of growth at 100 µg/mL came out at 21% in series [1]; 0% in [2]; 11% in series [3]; 85% in [4]; 17% in [5]; 44% in series [6]. Further, the inhibition of growth at 100 µg/mL was 44% in [7]; 0% in [8]; 0% in series [10]; 21% in series [11]; 55% in [12]; 21% in series [14]. Further, the MIC50 in series [9] is 63.7 µg/mL. Also, the Activity entry in series [13] is listed as “Non-Toxic”.
Regarding `O=C1CC[C@@H](C(=O)N/N=C/c2ccc([N+](=O)[O-])cc2)N1`, the inhibition of growth at 100 µg/mL was 30% in series [1]; 0% in series [2]; 40% in series [3]; 30% in series [4]; 42% in series [5]; 20% in series [6]. Further, the inhibition of growth at 100 µg/mL came out at 14% in series [7]; 0% in series [8]; 9% in [10]; 38% in series [11]; 100% in series [12]; 22% in series [14]. Moreover, the MIC50 in [15] amounted to 59.1 µg/mL. In [13], the Activity result is “Non-Toxic”.
As for `OC(Cn1cncn1)(Cn1cncn1)c1ccc(F)cc1F` [FLUCONAZOLE], in [9], the MIC50 was determined as 1.6 µg/mL.
`O=C1CC[C@@H](C(=O)N/N=C/c2ccc(Cl)nc2)N1`: the inhibition of growth at 100 µg/mL in [1] turned out to be 0%; in [2], 0%; in series [3], 33%; in series [4] it was 72%; in series [5] it was 0%; in series [6] it was 42%. The inhibition of growth at 100 µg/mL was determined as 62% in [7]; 0% in [8]; 0% in series [10]; 10% in series [11]; 23% in series [12]; 2% in series [14]. Moreover, the MIC50 in series [9] is 38.4 µg/mL. The Activity result in series [13] was “Non-Toxic”.
Consider `Cc1ccc(/C=N/NC(=O)[C@@H]2CCC(=O)N2)cc1`, for which the inhibition of growth at 100 µg/mL was 0% in series [1]; 11% in [2]; 5% in [3]; 28% in [4]; 33% in [5]; 35% in series [6]. Also, the inhibition of growth at 100 µg/mL in series [7] is 0%; in [8], 0%; in series [10], 0%; in series [11], 32%; in [12] it was 94%; in series [14], 28%. In addition, in series [15], the MIC50 came to 102 µg/mL. Besides, the Activity result in series [13] is listed as “Non-Toxic”.
On to `O=C1CC[C@@H](C(=O)N/N=C/c2ccccc2[N+](=O)[O-])N1`, for which the inhibition of growth at 100 µg/mL in series [1] came to 0%; in series [2], 32%; in series [3] it was 0%; in series [4] it was 50%; in series [5], 19%; in [6], 3%. The inhibition of growth at 100 µg/mL in [7] turned out to be 13%; in [8], 27%; in series [10], 21%; in series [11], 35%; in series [12] it was 100%; in [14], 0%. Also, the MIC50 in [15] was 51.6 µg/mL. Besides, the Activity result in [13] is on record as “Non-Toxic”.
With `O=C1CC[C@@H](C(=O)N/N=C/c2c(Cl)cccc2Cl)N1`, the inhibition of growth at 100 µg/mL was determined as 0% in series [1]; 12% in series [2]; 12% in series [3]; 73% in series [4]; 16% in series [5]; 13% in [6]. Also, the inhibition of growth at 100 µg/mL stood at 22% in series [7]; 0% in series [8]; 58% in series [10]; 32% in [11]; 60% in series [12]; 0% in series [14]. The MIC50 in [9] was found to be 1.8 µg/mL. For the same molecule, the Activity result in series [13] is on record as “Non-Toxic”.
Turning to `CN(NC1CCC(=O)N1)c1ccccc1` (racemic), the MIC50 in series [16] worked out at 14.8 µg/mL; in series [15], 31 µg/mL. Further, the inhibition of growth at 100 µg/mL turned out to be 0% in series [1]; 45% in [2]; 42% in series [3]; 18% in series [4]; 20% in series [5]; 70% in series [6]. For the same molecule, the inhibition of growth at 100 µg/mL in series [7] was 56%; in series [8], 20%; in series [10] it was 46%; in series [11] it was 61%; in series [12], 100%; in series [14], 20%. Besides, in series [13], the Activity result was “Non-Toxic”.
Consider `O=C1CC[C@@H](C(=O)N/N=C/c2ccccc2O)N1`, for which the inhibition of growth at 100 µg/mL amounted to 38% in series [1]; 7% in [2]; 0% in series [3]; 70% in series [4]; 7% in series [5]; 14% in [6]. Moreover, the inhibition of growth at 100 µg/mL in series [7] turned out to be 30%; in [8], 0%; in series [10], 21%; in [11], 18%; in series [12] it was 40%; in series [14], 38%. Besides, the MIC50 in series [9] amounted to 62 µg/mL. In addition, the Activity entry in series [13] is reported as “Non-Toxic”.
On to `O=C1CC[C@@H](C(=O)N/N=C/CCc2ccccc2)N1`, for which the inhibition of growth at 100 µg/mL worked out at 0% in [1]; 0% in [2]; 53% in series [3]; 68% in series [4]; 17% in [5]; 39% in series [6]. The inhibition of growth at 100 µg/mL in series [7] stood at 29%; in series [8] it was 6%; in [10], 0%; in [11], 12%; in series [12], 0%; in series [14], 0%. Besides, in series [13], the Activity result is listed as “Non-Toxic”.
Take `COc1cc(/C=N/NC(=O)[C@@H]2CCC(=O)N2)cc(OC)c1OC`: the inhibition of growth at 100 µg/mL in [1] is 29%; in series [2] it was 0%; in [3] it was 0%; in series [4], 0%; in series [5], 0%; in series [6], 26%. Moreover, the inhibition of growth at 100 µg/mL in series [7] was 32%; in series [8], 0%; in [10], 0%; in [11], 18%; in [12] it was 0%; in [14] it was 50%. The Activity entry in series [13] is given as “Non-Toxic”.
On to `O=C1CC[C@@H](C(=O)N/N=C/C2CCCCC2)N1`, for which the inhibition of growth at 100 µg/mL is 8% in series [1]; 8% in [2]; 1% in series [3]; 62% in [4]; 0% in series [5]; 36% in [6]. In addition, the inhibition of growth at 100 µg/mL in series [7] worked out at 23%; in series [8] it was 8%; in series [10], 0%; in series [11] it was 30%; in series [12], 0%; in [14] it was 0%. In addition, the Activity result in series [13] is “Non-Toxic”.
